Measurements published in patent publication US12465609B2, “Methods of treating patients suffering from a disease condition or disorder that is associated with an increased glutamate level” (veriNOS operations GmbH, priority 2022, dated 2025).

Key:
[1] = Exposure control (pharmacokinetics) in NOSTRA III patients; type: in vivo, human; conditions: TBI patients; for mean absolute concentration 12 hours after end of infusion / mean absolute concentration at the end of the infusion: Ronopterin 17 mg/kg infused for 48 hours
Experimental: An exposure control was performed with samples collected after end of infusion and 12 hours after end of infusion.

[2] = system: C57 BL/6 mice, controlled cortical impact (CCI) model; assay: Controlled cortical impact (CCI) model in mice, intracranial pressure (ICP); type: in vivo; conditions: for therapeutic activity of metabolites of VAS203: mouse, in vivo
Source text: The primary objective of this experiment was the characterization of the intracranial pressure (ICP) reduction by VAS3384 in the controlled cortical impact (CCI) model in mice. The secondary objective was characterization of the neuroprotective effect (reduction of the lesion volume) of VAS3384 in the controlled cortical impact model in mice.
• Test compound A • Denomination: VAS 3384 • Active agent: 4-Amino-4-desoxy-7,8-dihydrobiopterin-dihydrochloride, obtained from Schircks Laboratories, Bauma, Switzerland • Detailed composition: VAS 3384 dissolved in sodium phosphate buffer (PBS) pH 7.4 • Formulation method: 15 mg of the test compound (VAS 3384) are dissolved in 500 μl PBS, pH 7.4. The solution is neutralized with 72 μl 1 N NaOH and filled up with 428 μl water (check pH). • Final concentration of active agent: 15 mg/ml • Appearance: yellow, clear solution • Storage (solid test compound): −20° C. • Dose applied: 560 mg/kg or 37.3 ml/kg • Way of administration: intravenous injection/infusion • Negative control • Denomination: sodium phosphate buffer (PBS) • Active agent: none • Detailed composition: Na2HPO4, NaH2PO4, 100 mM pH 7.4 • Formulation method: ready for use • Final concentration of active agent: not applicable • Appearance: colourless, clear solution • Expiration date: 3 months after preparation • Volume applied: 37.3 ml/kg • Way of administration: intravenous injection/infusion Experimental Procedure
The animals (C57 BL/6 mice), under Dormicum/Methidomidin/Fentanyl-narcosis were fixed in a stereo tactical frame and the scalp was opened with a cut along the median. The skull bone
was laid open and disinfected with H2O2. A hole of approx. 1.2 mm diameter was then drilled into the skull (Bregma 0.4-0.4 mm). The ICP-probe was introduced through this hole. The V. jugularis was be laid open and a catheter introduced. This catheter was introduced in the neck subcutaneously and fixed on the cap of the cage with a protective spiral of metal. This setup permitted an infusion in awake animals. The skull was opened above of the right cortex and mechanically traumatized (CCI model). The skullcap was then closed with the removed bone.
Mice 1-9: 10 minutes after the trauma the animals got an intravenous bolus injection of 20 mg/kg VAS 3384 (=1.33 ml/kg) followed by an infusion of 1.5 mg/kg/min (=100 μl/kg/min) VAS 3384 over six hours to maintain the dose. After six hours, after termination of the infusion, and after 24 hours the ICP of the animals was measured. After 24 hours the animals were sacrificed, the brains dissected and the lesion volume determined by Nissl's method.
Mice 10-18: 10 minutes after the trauma the animals received an intravenous bolus injection of 1.33 ml/kg PBS followed by an infusion of 100 μl/kg/min PBS over six hours. After six hours, after the termination of the infusion, and after 24 hours the ICP of the animals was measured.
At the end of the observation period animals were sacrificed by cervical dislocation in deep halothane anaesthesia. The brains were carefully removed, frozen in powdered dry ice, and stored at −20° C. until further use. Ten μm coronal sections were prepared every 500 μm on a cryostat (CryoStar HM 560, Microm, Walldorf, Germany) and stained with cresyl violet. Sections were photographed with a digital camera system. The contusion area, the area of the non-traumatized tissue of the ipsilateral hemisphere, and the area of the contralateral hemisphere were determined on the digitized images with a standard image analysis software (Optimate 6.51, Media Cybernetics, Silver Spring, MD, USA) by an investigator blinded to the treatment of the animals. In order to correct for the swelling of contused tissue, the contusion area was calculated by subtracting the area of the non-traumatized tissue of the ipsilateral hemisphere from the area of the contralateral hemisphere. […]

[3] = Plasma pharmacokinetics after single rectal administration of VAS203 gel in rabbits; type: in vivo
Experimental: In this Example, VAS203 was formulated as a gel at a concentration of 450 mg VAS203/ml for single rectal administration in rabbits. This formulation of VAS203 as a gel (450 mg/ml) was filled in 2 ml syringes pact in foil with an oxygen absorber.
Six rabbits were dosed with 1.5 ml of VAS203 gel (corresponding to a dosage of about 200 mg VAS203/kg body weight). Blood collection was carried out at pre-dose, 10 min, 20 min, 40 min, 1 h, 2 h, 3 h, 4 h, 5 h, 6 h, and 20-26 h after rectal administration. The whole blood samples (ca. 1-2 ml sufficient to obtain approx. 0.3 mL EDTA plasma/animal/sampling time), were collected into pre-cooled EDTA vials. To stabilise the blood samples, 1 mg Dithioerythritol (DTE) was added to approx. 1 mL blood. Within 15 minutes of blood collection the samples were centrifuged at 4° C. for 10 minutes. The plasma was transferred to vials and immediately frozen and stored at −80° C. for analysis.
The plasma concentrations (in μg/L) of VAS203, 7,8-Dihydroaminobiopterin (VAS3384, ABH2, the compound of formula (II) as shown in here) and Aminobiopterin (VAS3382, AB) were measured by liquid chromatography mass spectrometry (LC-MS).

[4] = system: nitric oxide synthase (NOS) / spinal NR2B-containing NMDA receptors; conditions: rats, cited from earlier work
blood glutamate levels = conditions: rat; cited from earlier work
plasma glutamate = conditions: neurosurgical patients, anesthesia; cited from earlier work
iNOS = iNOS (Homo sapiens, UniProt P35228); assay: In vitro iNOS inhibition; type: biochemical
[5] = rabbits, single rectal VAS203 gel, about 200 mg/kg

For C[C@H](O)[C@@H](O)c1cnc2nc(N)nc(N)c2n1 [aminobiopterin, Aminobiopterin], the “mean absolute concentration 12 hours after end of infusion” value [1] was 37 ng/mL, the “mean absolute concentration at the end of the infusion” value [1] was 52 ng/mL and the “therapeutic activity of metabolites of VAS203” value [2] was “no therapeutic activity”. The elimination half-life [3, 5] was “approximately 4 hours” and the “time to reach plateau of plasma concentration” value [3, 5] was “approx. 50 minutes”.

For C[C@@H](CN1CCC(Cc2ccccc2)CC1)[C@@H](O)c1ccc(O)cc1 [Ro25-6981], the “oxaliplatin-increased intensity of NADPH diaphorase staining in the superficial layer of spinal dorsal horn” value ([4]; intrathecal injection) is listed as “reversed”.

In the case of N[C@@H](Cc1cc(I)c(Oc2cc(I)c(O)c(I)c2)c(I)c1)C(=O)O [L-thyroxine], the blood glutamate levels (blood glutamate levels) is given as “increased”.

For CC(C)c1cccc(C(C)C)c1O [propofol], the plasma glutamate (plasma glutamate) is listed as “significantly increase”.

In the case of CC(O)C(O)C1=Nc2c(N)nc(N)nc2NC1 [VAS3384, 4-Amino-(6R,S)-7,8-dihydro-L-biopterin], the IC50 (iNOS) is reported as 12 µM, the “potency to inhibit the i-NOS in comparison to VAS203” value (iNOS) is reported as “about ten times less potency” and the “elimination 12 hours after end of infusion” value [1] is reported as 56%. For the same compound, the “mean absolute concentration 12 hours after end of infusion” value [1] was 476 ng/mL, the “mean absolute concentration at the end of the infusion” value [1] was 1071 ng/mL and the “ICP after 6 hours” value ([2]; CCI mice, i.v. infusion of 560 mg/kg over 6 h, mean +/- SD, n=9/group, placebo 14.1+/−1.8, p=0.0005) was 10.4+/−1.9. The “ICP after 24 hours” value ([2]; CCI mice, i.v. infusion of 560 mg/kg over 6 h, placebo 10.7+/−2.3, non-significant) was 10.3+/−1.7, the “reduction of the increased ICP compared with the placebo group” value ([2]; infusion of 560 mg/kg for six hours, starting 10 minutes after CCI) was “significantly reduction of the increased ICP” and the “therapeutic activity of metabolites of VAS203” value [2] was “still active”. For the same compound, the half-life ([3]; rabbit, in vivo, 200 mg/kg) was ~1.33 h.

For FC(F)OC(Cl)C(F)(F)F (stereo not drawn) [Isoflurane], the plasma glutamate (plasma glutamate) is listed as “significantly increase”.

In the case of O=[N+]([O-])c1cccc2cn[nH]c12 [7-nitroindazole], the oxaliplatin-induced pain behavior [4] is given as “significantly suppressed”.

In the case of COC(=O)[C@@H](N)CCCNC(=N)N[N+](=O)[O-] [L-NAME], the oxaliplatin-induced pain behavior [4] is listed as “significantly suppressed”.
